# From patent US8853230B2, “Inhibitors of JAK” (Portola Pharmaceuticals, Inc., priority 2009, dated 2014)
# Columns and labels:
# Assay type in all cases: biochemical
# TYK2 = target: T1, TYK2 (Homo sapiens, UniProt P29597); experiment: Z'-LYTE kinase assay, TYK2 tyrosine phosphorylation activity
# T1 construct: 5 μl of catalytic domain recombinant Kinase enzyme+Tyr peptide substrate (Invitrogen, Calif.); purchased Invitrogen
# T1 sequence (P29597 897-1176 limits assumed): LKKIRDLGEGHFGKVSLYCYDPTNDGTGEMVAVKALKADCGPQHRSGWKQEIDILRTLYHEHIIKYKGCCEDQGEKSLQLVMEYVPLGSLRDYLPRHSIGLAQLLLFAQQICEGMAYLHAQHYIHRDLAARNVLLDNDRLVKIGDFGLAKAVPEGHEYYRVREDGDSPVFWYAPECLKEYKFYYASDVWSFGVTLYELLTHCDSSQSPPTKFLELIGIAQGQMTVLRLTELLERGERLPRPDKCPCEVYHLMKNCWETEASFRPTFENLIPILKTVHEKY
# Procedure, shortened: (§1)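 Compounds are serially diluted 1:10 in DMSO and tested in duplicate at 1% final DMSO. Each recombinant catalytic domain phosphorylates the Tyr6 FRET peptide with ATP for 1 h at room temperature, then a site-specific protease cleaves unphosphorylated peptide over 1 h before coumarin/fluorescein emission is read.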
# JAK2 = target: T2, JAK2 (Homo sapiens, UniProt O60674); experiment: Z'-LYTE kinase assay, JAK2 tyrosine phosphorylation activity
# T2 construct: 5 μl of catalytic domain recombinant Kinase enzyme+Tyr peptide substrate (Invitrogen, Calif.); purchased Invitrogen
# T2 sequence (O60674 849-1124 limits assumed): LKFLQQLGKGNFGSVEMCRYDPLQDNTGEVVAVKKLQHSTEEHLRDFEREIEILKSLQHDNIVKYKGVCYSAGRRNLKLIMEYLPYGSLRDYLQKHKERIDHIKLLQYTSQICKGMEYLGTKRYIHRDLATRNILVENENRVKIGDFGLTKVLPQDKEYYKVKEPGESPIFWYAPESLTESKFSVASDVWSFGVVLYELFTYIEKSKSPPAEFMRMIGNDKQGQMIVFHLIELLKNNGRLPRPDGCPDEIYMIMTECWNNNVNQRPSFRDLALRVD
# Procedure, shortened: as §1
# JAK3 = target: T3, JAK3 (Homo sapiens, UniProt P52333); experiment: Z'-LYTE kinase assay, JAK3 tyrosine phosphorylation activity
# T3 construct: 5 μl of catalytic domain recombinant Kinase enzyme+Tyr peptide substrate (Invitrogen, Calif.); purchased Invitrogen
# T3 sequence (P52333 822-1111 limits assumed): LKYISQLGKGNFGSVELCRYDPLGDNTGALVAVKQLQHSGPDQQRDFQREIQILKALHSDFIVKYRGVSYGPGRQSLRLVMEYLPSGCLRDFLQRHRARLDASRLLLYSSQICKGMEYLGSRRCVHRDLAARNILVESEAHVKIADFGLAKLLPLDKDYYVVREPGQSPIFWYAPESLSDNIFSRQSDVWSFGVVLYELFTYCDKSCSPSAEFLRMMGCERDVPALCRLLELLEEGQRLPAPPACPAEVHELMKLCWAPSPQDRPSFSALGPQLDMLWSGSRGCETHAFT
# Procedure, shortened: as §1
# Syk = Syk (Homo sapiens, UniProt P43405); experiment: Syk IC50 (Table 1; method not given)
# JAK1 = target: T4, JAK1 (Homo sapiens, UniProt P23458); experiment: Z'-LYTE kinase assay, JAK1 tyrosine phosphorylation activity; details: read-out: JAK 1 IC50
# T4 construct: 5 μl of catalytic domain recombinant Kinase enzyme+Tyr peptide substrate (Invitrogen, Calif.); purchased Invitrogen
# T4 sequence (P23458 875-1153 limits assumed): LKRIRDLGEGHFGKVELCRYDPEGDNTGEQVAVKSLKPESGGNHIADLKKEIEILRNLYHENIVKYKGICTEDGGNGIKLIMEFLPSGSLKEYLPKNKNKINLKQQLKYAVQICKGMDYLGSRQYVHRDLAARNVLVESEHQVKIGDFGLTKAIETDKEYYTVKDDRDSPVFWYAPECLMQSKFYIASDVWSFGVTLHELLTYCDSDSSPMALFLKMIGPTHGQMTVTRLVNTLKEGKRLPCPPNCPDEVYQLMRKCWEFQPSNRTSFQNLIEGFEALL
# Procedure, shortened: as §1
SMILES,IC50 (TYK2) [nM],IC50 (JAK2) [nM],IC50 (JAK3) [nM],IC50 (Syk) [nM],IC50 (JAK1) [nM]
"COCC(=O)N(C)c1cccc(Nc2ncc(C(N)=O)c(NC(C)C)n2)c1 [Example 88, 4-(isopropylamino)-2-(3-(2-methoxy-N-methylacetamido)phenylamino)pyrimidine-5-carboxamide]",10 to 100,10 to 100,10 to 100,> 1000,10 to 100
"COCC(=O)Nc1cccc(Nc2ncc(C(N)=O)c(NCC(F)(F)F)n2)c1 [Example 6, 2-(3-(2-methoxyacetamido)phenylamino)-4-(2,2,2-trifluoroethylamino)pyrimidine-5-carboxamide]",10 to 100,10 to 100,10 to 100,100 to 1000,10 to 100
"CC(=O)Nc1cccc(Nc2ncc(C(N)=O)c(NCC(=O)N3CCCC3)n2)c1 [Example 65, 2-(3-acetamidophenylamino)-4-(2-oxo-2-(pyrrolidin-1-yl)ethylamino)pyrimidine-5-carboxamide]",10 to 100,100 to 1000,10 to 100,> 1000,> 1000
"NC(=O)c1cnc(Nc2cccc(NC(=O)N3CCCC3)c2)nc1NC1CCCC1 [Example 37, 4-(cyclopentylamino)-2-(3-(pyrrolidine-1-carboxamido)phenylamino)pyrimidine-5-carboxamide]",1 to 10,10 to 100,1 to 10,> 1000,10 to 100
"CC(=O)Nc1cccc(Nc2ncc(C(N)=O)c(NCC(F)(F)F)n2)c1 [Example 7, 2-(3-acetamidophenylamino)-4-(2,2,2-trifluoroethylamino)pyrimidine-5-carboxamide]",1 to 10,10 to 100,1 to 10,100 to 1000,10 to 100
"CC(=O)Nc1cccc(Nc2ncc(C(N)=O)c(N[C@H](CO)Cc3ccccc3)n2)c1 [Example 76, (S)-2-(3-acetamidophenylamino)-4-(1-hydroxy-3-phenylpropan-2-ylamino)pyrimidine-5-carboxamide]",10 to 100,10 to 100,10 to 100,> 1000,100 to 1000
"CC(=O)Nc1cccc(Nc2ncc(C(N)=O)c(NC3CCC3)n2)c1 [Example 1, 2-(3-acetamidophenylamino)-4-(cyclobutylamino)pyrimidine-5-carboxamide]",–,10 to 100,1 to 10,100 to 1000,10 to 100
"COCC(=O)Nc1cccc(Nc2ncc(C(N)=O)c(NCc3ccc(Cl)cc3)n2)c1 [Example 45, 4-(4-chlorobenzylamino)-2-(3-(2-methoxyacetamido)phenylamino)pyrimidine-5-carboxamide]",–,100 to 1000,100 to 1000,> 1000,> 1000
"COCC(=O)Nc1cccc(Nc2ncc(C(N)=O)c(N[C@@H](C)c3ccccc3)n2)c1 [Example 42, (S)-2-(3-(2-methoxyacetamido)phenylamino)-4-(1-phenylethylamino)pyrimidine-5-carboxamide]",–,100 to 1000,100 to 1000,> 1000,100 to 1000
"COCC(=O)Nc1cccc(Nc2ncc(C(N)=O)c(NCc3ccc(Cl)c(Cl)c3)n2)c1 [Example 46, 4-(3,4-dichlorobenzylamino)-2-(3-(2-methoxyacetamido)phenylamino)pyrimidine-5-carboxamide]",–,> 1000,100 to 1000,> 1000,> 1000
"CC(=O)Nc1cccc(Nc2ncc(C(N)=O)c(NCc3c(F)ccc(F)c3F)n2)c1 [Example 59, 2-(3-acetamidophenylamino)-4-(2,3,6-trifluorobenzylamino)pyrimidine-5-carboxamide]",–,10 to 100,1 to 10,100 to 1000,10 to 100
"CCNC(=O)Nc1cccc(Nc2ncc(C(N)=O)c(NC3CCCC3)n2)c1 [Example 36, 4-(cyclopentylamino)-2-(3-(3-ethylureido)phenylamino)pyrimidine-5-carboxamide]",–,10 to 100,1 to 10,100 to 1000,10 to 100
"CC(=O)Nc1cccc(Nc2ncc(C(N)=O)c(NCC#N)n2)c1 [Example 74, 2-(3-acetamidophenylamino)-4-(cyanomethylamino)pyrimidine-5-carboxamide]",–,10 to 100,10 to 100,100 to 1000,10 to 100
"CN(C)[C@@H]1CCN(C(=O)Nc2cccc(Nc3cc(NCc4cccc(F)c4)c(C(N)=O)cn3)c2)C1 [Example 306, (R)-6-(3-(3-(dimethylamino)pyrrolidine-1-carboxamido)phenylamino)-4-(3-fluorobenzylamino)nicotinamide]",–,10 to 100,< 1,> 1000,100 to 1000
"CC(=O)Nc1cccc(Nc2ncc(C(N)=O)c(NCC(N)=O)n2)c1 [Example 50, 2-(3-acetamidophenylamino)-4-(2-amino-2-oxoethylamino)pyrimidine-5-carboxamide]",–,100 to 1000,100 to 1000,> 1000,100 to 1000
"CC(=O)Nc1cccc(Nc2ncc(C(N)=O)c(NCCC(N)=O)n2)c1 [Example 61, 2-(3-acetamidophenylamino)-4-(3-amino-3-oxopropylamino)pyrimidine-5-carboxamide]",–,100 to 1000,10 to 100,> 1000,10 to 100
"NC(=O)c1cnc(Nc2cccc(NC(=O)C3CC3)c2)nc1NC1CCCC1 [Example 19, 4-(cyclopentylamino)-2-(3-(cyclopropanecarboxamido)phenylamino)pyrimidine-5-carboxamide]",–,10 to 100,1 to 10,100 to 1000,10 to 100
"CC(=O)Nc1cccc(Nc2ncc(C(N)=O)c(NCc3ccc(Cl)c(Cl)c3)n2)c1 [Example 70, 2-(3-acetamidophenylamino)-4-(3,4-dichlorobenzylamino)pyrimidine-5-carboxamide]",–,100 to 1000,100 to 1000,> 1000,> 1000
"CNC(=O)CNc1nc(Nc2cccc(NC(C)=O)c2)ncc1C(N)=O [Example 72, 2-(3-acetamidophenylamino)-4-(2-(methylamino)-2-oxoethylamino)pyrimidine-5-carboxamide]",–,100 to 1000,10 to 100,> 1000,100 to 1000
"CC(=O)Nc1cccc(Nc2ncc(C(N)=O)c(NCCc3ccccc3)n2)c1 [Example 56, 2-(3-acetamidophenylamino)-4-(phenethylamino)pyrimidine-5-carboxamide]",–,10 to 100,10 to 100,100 to 1000,100 to 1000
"CC(=O)Nc1cccc(Nc2ncc(C(N)=O)c(NC3CCCC3)n2)c1 [Example 15, 2-(3-acetamidophenylamino)-4-(cyclopentylamino)pyrimidine-5-carboxamide]",–,10 to 100,1 to 10,100 to 1000,10 to 100
"COCC(=O)Nc1cccc(Nc2ncc(C(N)=O)c(NCc3ccc(OC)cc3)n2)c1 [Example 44, 2-(3-(2-methoxyacetamido)phenylamino)-4-(4-methoxybenzylamino)pyrimidine-5-carboxamide]",–,100 to 1000,10 to 100,> 1000,100 to 1000
"CC(=O)Nc1cccc(Nc2ncc(C(N)=O)c(N[C@@H](C)c3ccccc3)n2)c1 [Example 64, (S)-2-(3-acetamidophenylamino)-4-(1-phenylethylamino)pyrimidine-5-carboxamide]",–,100 to 1000,10 to 100,> 1000,100 to 1000
"CC(=O)Nc1cccc(Nc2ncc(C(N)=O)c(NC[C@@H](O)c3ccccc3)n2)c1 [Example 48, (S)-2-(3-acetamidophenylamino)-4-(2-hydroxy-2-phenylethylamino)pyrimidine-5-carboxamide]",–,10 to 100,1 to 10,> 1000,100 to 1000
"CC(=O)Nc1cccc(Nc2ncc(C(N)=O)c(NC[C@@H](C)c3ccccc3)n2)c1 [Example 3, (S)-2-(3-acetamidophenylamino)-4-(2-phenylpropylamino)pyrimidine-5-carboxamide]",–,1 to 10,1 to 10,> 1000,10 to 100
"CC(=O)Nc1cccc(Nc2ncc(C(N)=O)c(NCCN3CCCC3)n2)c1 [Example 63, 2-(3-acetamidophenylamino)-4-(2-(pyrrolidin-1-yl)ethylamino)pyrimidine-5-carboxamide]",–,> 1000,100 to 1000,> 1000,> 1000
"CC(=O)Nc1cccc(Nc2ncc(C(N)=O)c(NCc3ccc(Cl)cc3)n2)c1 [Example 69, 2-(3-acetamidophenylamino)-4-(4-chlorobenzylamino)pyrimidine-5-carboxamide]",–,100 to 1000,10 to 100,> 1000,100 to 1000
"CC(=O)Nc1cccc(Nc2ncc(C(N)=O)c(N(C)Cc3ccccc3)n2)c1 [Example 54, 2-(3-acetamidophenylamino)-4-(benzyl(methyl)amino)pyrimidine-5-carboxamide]",–,100 to 1000,100 to 1000,> 1000,> 1000
